According to US10174035B2, “6-morpholinyl-2-pyrazolyl-9H-purine derivatives and their use as PI3K inhibitors” (Daiichi Sankyo Company, Limited, priority 2015, dated 2019):
Values after ≈ are worked out from the molar mass of the structure shown. Like-named read-outs stand apart in the source and are kept apart here.

Legend:
[1] = target: recombinant PI3K δ enzyme (Homo sapiens (Human), UniProt O00329); assay: In vitro enzyme assay (Kinase-Glo luminescent kinase assay), PI3Kδ; assay type: biochemical
Summary of the method: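 Each recombinant human PI3K isoform at 2.29 μg/mL with 60 μM PIP2 and 10 μM ATP in HEPES pH 7.4, NaCl, CHAPS, MgCl2, DTT, 2 hours at room temperature. Remaining ATP read by Kinase-Glo luminescence relative to no-enzyme blanks.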

[2] = Solubility in Japanese Pharmacopeia First Fluid (JP1) and Second Fluid (JP2); assay type: physicochemical; conditions: thermodynamic from solid, room temperature
Procedure: A 10 mmol/L solution of the test compound was prepared in DMSO and dispensed 100 μL of 10 mmol/L DMSO stock solutions into labeled glass tubes in duplicate, one for Japanese Pharmacopeia First Fluid (JP1) and second for Japanese Pharmacopeia Second Fluid (JP2). After evaporation of DMSO from each tube, 500 μL of JP1 and JP2 fluid were added in each tube, respectively. These tubes were sonicated for 1 minute and placed on shaker for 30 minutes with an interval of 30 seconds at every 5 minute. Tubes were placed in dark at room temperature for 1 hour and solution was filtered through membrane filter. The filtrate was diluted 2-fold and 10-fold. The resulting test solutions was analyzed and quantified against the standards using UPLC (standard preparation-10 mmol/L solution in DMSO is serially diluted with 50% aqueous acetonitrile solution to prepare 2 solutions; 100 μmol/L standard solution and 5 μmol/L standard solution).

[3] = target: PI3Kα (Homo sapiens (Human), UniProt P42336); assay: In vitro enzyme assay (Kinase-Glo), selectivity, PI3Kα; assay type: biochemical; conditions: enzyme 2.29 μg/mL; ATP 10 μM; PIP2 60 μM; 2 hours
Procedure: (§1) The Kinase-Glo luminescent kinase assay kit (from Promega) was used to measure kinase activity. In this assay, amount of ATP remaining in solution following a kinase reaction is measured. The effect of compounds on PI3Kδ inhibition was carried out by adding 2.29 μg/ml of recombinant PI3K δ enzyme (Proteros, Germany) to reaction mixture containing assay buffer (50 mM HEPES, pH 7.4, 50 mM NaCl, 0.05% CHAPS) supplemented with 10 mM MgCl2, 5 mM DTT, 60 μM Phosphatidyl inositol bisphosphate (PIP2) and 10 μM ATP in the absence or presence of different concentrations of the compounds in a final volume of 15 μl/well, in a 384 well plate. The reaction mixture was incubated for 2 hours at room temperature. At the end of incubation period the equal volume of Kinase-Glo plus (Promega, V3772), was added per well and the luminescence was measured after incubating for 10 minutes at room temperature in dark. Results were calculated by measuring the luminescence units of test samples to blanks containing no enzyme.
(§2) The compounds of the present invention were tested for their selectivity for PI3Kδ over PI3Kα, PI3Kβ and PI3Kγ following the above assay using specific recombinant enzymes (Proteros, Germany) for each kinase. Assay condition of kinase assay (PI3Kα, PI3Kβ, PI3Kγ and PI3Kδ) was as follows. Enzyme: 2.29 μg/mL; ATP: 10 μM; PIP2 substrate: 60 μM and Reaction Time: 2 hours.

[4] = target: PI3Kβ (Homo sapiens (Human), UniProt P42338); assay: In vitro enzyme assay (Kinase-Glo), selectivity, PI3Kβ; assay type: biochemical; conditions: enzyme 2.29 μg/mL; ATP 10 μM; PIP2 60 μM; 2 hours
Procedure: as §1, §2

[5] = target: PI3Kγ (Homo sapiens (Human), UniProt P48736); assay: In vitro enzyme assay (Kinase-Glo), selectivity, PI3Kγ; assay type: biochemical; conditions: enzyme 2.29 μg/mL; ATP 10 μM; PIP2 60 μM; 2 hours
Procedure: The Kinase-Glo luminescent kinase assay kit (from Promega) was used to measure kinase activity. In this assay, amount of ATP remaining in solution following a kinase reaction is measured. […] The reaction mixture was incubated for 2 hours at room temperature. At the end of incubation period the equal volume of Kinase-Glo plus (Promega, V3772), was added per well and the luminescence was measured after incubating for 10 minutes at room temperature in dark. Results were calculated by measuring the luminescence units of test samples to blanks containing no enzyme.
The compounds of the present invention were tested for their selectivity for PI3Kδ over PI3Kα, PI3Kβ and PI3Kγ following the above assay using specific recombinant enzymes (Proteros, Germany) for each kinase. Assay condition of kinase assay (PI3Kα, PI3Kβ, PI3Kγ and PI3Kδ) was as follows.

[6] = system: IFN-γ release in mouse splenocytes; assay: Phytohaemagglutinin (PHA)-induced interferon (IFN)-gamma release in mouse splenocytes; set-up: species or system C57BL/6 mouse; conditions: Splenocyte, PHA (10 μg/ml) for 48 hours, IFN-γ by ELISA, read-out: Cell Based IC50
Procedure: Effect of compounds on mitogen-induced IFN-γ release in mouse splenocytes was used to evaluate their potency in cell-based assay system [Blood (2010) 115: 2203-2213; Current Protocols in Immunology (2004) 3.12.1-3.12.20].
Mouse splenocytes were obtained from the spleen of a C57BL/6 mouse and plated at a density of 0.25 million cells/well in a 96 well tissue culture plate. The effect of the compounds to inhibit IFN-γ release was evaluated by treating the splenocytes with various concentrations of the test compounds followed by stimulation with PHA (10 μg/ml) for 48 hours. The IFN-γ release in the cell culture supernatant was quantified by ELISA as per the manufacturer's protocol (BD Biosciences, #555138).

[7] = pH 1.2, simulated gastric fluid, Japanese Pharmacopeia First Fluid (JP1), read-out: Solubility JP1
[8] = pH 6.8, aqueous buffer, Japanese Pharmacopeia Second Fluid (JP2), read-out: Solubility JP2
[9] = enzyme 2.29 μg/mL, ATP 10 μM, PIP2 60 μM, 2 hours

PI3Kα, sequence (P42336 whole entry, species assumed): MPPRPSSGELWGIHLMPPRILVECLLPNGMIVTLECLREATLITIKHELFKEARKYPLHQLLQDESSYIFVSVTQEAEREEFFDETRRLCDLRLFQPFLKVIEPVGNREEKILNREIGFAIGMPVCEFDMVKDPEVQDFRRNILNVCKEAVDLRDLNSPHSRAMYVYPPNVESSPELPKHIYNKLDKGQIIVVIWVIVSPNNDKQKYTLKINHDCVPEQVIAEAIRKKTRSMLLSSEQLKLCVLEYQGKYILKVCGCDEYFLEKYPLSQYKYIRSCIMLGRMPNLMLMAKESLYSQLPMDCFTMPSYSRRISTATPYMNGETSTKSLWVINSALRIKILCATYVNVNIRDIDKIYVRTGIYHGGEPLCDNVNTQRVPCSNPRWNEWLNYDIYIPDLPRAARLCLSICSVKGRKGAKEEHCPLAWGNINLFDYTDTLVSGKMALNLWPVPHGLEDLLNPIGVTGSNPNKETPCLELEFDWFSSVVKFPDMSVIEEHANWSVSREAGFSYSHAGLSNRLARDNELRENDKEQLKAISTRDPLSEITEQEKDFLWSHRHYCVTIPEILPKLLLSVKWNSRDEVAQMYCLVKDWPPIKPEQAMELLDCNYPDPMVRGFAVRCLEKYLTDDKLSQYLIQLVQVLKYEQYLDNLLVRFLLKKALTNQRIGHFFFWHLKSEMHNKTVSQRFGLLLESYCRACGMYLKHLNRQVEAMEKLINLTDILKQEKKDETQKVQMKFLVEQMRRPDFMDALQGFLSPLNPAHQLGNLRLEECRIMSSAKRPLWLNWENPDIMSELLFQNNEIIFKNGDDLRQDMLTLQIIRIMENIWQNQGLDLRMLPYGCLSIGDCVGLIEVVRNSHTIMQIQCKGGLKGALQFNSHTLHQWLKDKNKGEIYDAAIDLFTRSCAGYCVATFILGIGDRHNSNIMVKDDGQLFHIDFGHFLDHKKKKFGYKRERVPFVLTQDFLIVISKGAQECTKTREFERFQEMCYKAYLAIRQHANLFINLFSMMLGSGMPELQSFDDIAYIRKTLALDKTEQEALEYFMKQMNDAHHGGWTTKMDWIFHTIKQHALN
PI3Kα, sequence (P27986 whole entry partner, species assumed): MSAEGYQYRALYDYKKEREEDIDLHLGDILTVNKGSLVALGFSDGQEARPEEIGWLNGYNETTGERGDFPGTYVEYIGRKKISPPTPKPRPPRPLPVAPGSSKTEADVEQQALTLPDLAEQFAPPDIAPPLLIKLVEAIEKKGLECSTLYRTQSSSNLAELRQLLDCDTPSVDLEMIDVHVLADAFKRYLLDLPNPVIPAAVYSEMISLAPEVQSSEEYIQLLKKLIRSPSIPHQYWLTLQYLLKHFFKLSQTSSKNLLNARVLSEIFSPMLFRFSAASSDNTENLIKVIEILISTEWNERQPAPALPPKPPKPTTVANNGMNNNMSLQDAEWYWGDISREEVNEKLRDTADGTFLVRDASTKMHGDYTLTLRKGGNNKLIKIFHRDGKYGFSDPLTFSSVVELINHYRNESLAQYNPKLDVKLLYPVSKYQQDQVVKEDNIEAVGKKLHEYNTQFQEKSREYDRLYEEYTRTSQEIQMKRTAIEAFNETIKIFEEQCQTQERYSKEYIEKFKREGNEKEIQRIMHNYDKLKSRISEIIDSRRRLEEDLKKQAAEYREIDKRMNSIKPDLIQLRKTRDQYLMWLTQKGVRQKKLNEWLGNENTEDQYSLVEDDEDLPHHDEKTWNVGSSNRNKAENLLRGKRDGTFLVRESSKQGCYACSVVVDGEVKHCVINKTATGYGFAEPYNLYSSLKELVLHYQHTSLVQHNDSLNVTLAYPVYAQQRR
PI3Kβ, sequence (P42338 whole entry, species assumed): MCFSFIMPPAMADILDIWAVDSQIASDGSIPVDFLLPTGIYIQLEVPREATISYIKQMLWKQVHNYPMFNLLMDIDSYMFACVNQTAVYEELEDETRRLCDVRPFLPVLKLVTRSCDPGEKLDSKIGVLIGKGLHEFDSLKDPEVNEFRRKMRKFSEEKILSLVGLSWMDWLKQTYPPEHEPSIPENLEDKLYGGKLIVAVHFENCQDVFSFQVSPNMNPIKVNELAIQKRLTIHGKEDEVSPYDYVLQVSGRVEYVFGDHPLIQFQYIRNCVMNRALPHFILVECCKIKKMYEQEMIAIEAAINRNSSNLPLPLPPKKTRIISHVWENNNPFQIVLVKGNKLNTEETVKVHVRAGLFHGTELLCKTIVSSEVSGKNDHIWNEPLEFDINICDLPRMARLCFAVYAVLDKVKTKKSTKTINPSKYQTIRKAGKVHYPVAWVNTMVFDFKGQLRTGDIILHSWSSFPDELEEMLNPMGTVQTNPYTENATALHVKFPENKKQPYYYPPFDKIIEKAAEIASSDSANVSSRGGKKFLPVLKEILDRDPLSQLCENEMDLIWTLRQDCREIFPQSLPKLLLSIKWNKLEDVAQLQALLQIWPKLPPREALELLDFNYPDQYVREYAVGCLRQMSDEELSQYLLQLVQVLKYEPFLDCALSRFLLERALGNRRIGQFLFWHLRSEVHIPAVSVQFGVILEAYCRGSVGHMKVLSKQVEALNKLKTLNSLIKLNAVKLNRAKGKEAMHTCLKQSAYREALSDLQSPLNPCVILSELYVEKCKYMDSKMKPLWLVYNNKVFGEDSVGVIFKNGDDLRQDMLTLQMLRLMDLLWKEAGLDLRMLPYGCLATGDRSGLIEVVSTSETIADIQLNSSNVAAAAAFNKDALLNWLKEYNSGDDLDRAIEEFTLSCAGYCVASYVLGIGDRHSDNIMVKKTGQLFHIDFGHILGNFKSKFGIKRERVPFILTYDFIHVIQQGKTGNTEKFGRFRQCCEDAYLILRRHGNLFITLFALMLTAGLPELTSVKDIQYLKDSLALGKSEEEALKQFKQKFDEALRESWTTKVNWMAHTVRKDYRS
PI3Kβ, sequence (P27986 whole entry partner, species assumed): as the sequence (P27986 whole entry partner, species assumed) above
PI3Kγ, sequence (P48736 whole entry, species assumed): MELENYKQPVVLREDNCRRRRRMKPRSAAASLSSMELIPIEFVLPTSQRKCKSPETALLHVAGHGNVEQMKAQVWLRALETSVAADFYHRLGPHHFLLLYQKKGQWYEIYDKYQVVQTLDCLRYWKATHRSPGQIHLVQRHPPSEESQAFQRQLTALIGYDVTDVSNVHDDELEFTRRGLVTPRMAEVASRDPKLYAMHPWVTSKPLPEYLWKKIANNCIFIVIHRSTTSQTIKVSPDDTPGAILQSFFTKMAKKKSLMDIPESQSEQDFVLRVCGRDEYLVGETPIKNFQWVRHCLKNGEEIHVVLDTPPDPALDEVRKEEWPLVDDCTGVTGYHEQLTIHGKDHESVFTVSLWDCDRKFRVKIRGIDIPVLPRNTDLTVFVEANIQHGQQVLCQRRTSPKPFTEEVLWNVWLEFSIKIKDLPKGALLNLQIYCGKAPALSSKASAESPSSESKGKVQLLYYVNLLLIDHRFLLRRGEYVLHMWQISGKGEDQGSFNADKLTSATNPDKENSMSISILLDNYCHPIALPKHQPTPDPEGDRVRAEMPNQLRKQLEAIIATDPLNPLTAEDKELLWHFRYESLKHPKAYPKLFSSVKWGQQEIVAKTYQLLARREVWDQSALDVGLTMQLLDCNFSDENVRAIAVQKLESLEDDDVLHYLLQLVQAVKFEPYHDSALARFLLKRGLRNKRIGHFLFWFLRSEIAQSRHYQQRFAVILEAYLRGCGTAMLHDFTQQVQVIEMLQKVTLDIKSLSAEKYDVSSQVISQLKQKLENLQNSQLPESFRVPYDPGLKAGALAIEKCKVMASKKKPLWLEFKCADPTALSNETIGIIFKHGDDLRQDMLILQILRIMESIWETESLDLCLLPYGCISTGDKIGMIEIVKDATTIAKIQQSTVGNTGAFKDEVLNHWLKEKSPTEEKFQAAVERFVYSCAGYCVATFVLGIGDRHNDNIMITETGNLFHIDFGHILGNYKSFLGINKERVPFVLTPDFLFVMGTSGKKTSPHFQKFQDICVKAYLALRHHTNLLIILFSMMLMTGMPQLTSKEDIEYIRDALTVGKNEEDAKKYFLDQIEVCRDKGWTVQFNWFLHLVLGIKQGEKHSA
recombinant PI3K δ enzyme, sequence (O00329 whole entry, species assumed, canonical isoform): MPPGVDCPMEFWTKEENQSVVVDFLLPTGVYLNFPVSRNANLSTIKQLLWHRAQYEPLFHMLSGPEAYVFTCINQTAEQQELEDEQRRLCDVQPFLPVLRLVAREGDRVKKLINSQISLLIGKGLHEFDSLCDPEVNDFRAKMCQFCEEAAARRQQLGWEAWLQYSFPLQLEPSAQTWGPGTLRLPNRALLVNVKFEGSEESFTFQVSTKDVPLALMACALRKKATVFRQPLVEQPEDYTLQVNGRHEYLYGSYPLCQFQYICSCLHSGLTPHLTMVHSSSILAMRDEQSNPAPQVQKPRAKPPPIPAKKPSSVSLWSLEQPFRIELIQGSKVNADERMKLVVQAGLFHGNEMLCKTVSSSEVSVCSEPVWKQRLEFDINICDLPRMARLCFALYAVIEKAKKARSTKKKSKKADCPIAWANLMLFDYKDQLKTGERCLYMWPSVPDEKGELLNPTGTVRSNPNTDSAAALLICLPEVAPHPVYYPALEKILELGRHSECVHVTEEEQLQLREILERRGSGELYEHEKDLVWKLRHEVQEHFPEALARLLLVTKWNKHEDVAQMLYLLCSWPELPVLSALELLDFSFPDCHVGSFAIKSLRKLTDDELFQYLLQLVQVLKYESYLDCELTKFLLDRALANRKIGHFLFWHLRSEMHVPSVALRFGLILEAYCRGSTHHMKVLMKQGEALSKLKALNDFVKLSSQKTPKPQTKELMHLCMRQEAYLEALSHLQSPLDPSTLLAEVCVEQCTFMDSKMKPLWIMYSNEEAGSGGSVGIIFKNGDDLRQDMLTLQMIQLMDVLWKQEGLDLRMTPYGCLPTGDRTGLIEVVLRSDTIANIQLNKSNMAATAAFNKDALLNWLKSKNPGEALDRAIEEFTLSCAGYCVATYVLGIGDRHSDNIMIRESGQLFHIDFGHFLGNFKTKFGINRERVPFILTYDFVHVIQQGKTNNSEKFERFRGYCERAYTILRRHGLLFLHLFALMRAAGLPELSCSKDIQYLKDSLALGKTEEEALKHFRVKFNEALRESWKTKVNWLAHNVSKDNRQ
recombinant PI3K δ enzyme, sequence (P27986 whole entry partner, species assumed, canonical isoform): as the sequence (P27986 whole entry partner, species assumed) above

Row | IC50 [1] | solubility at 30 min [2, 7] | solubility at 30 min [2, 8] | IC50 [1, 9] | IC50 [3] | IC50 [4] | IC50 [5] | IC50 [6] | Compound
1 | 19 nM | 932 µg/mL (≈ 1940 µM) | 560 µg/mL (≈ 1170 µM) |  |  |  |  |  | Cn1cc(-c2cc(N3CCOCC3)c3nc(C(=O)N4CCC(N5CCOCC5)CC4)[nH]c3n2)cn1 [compound 102, [5-(1-Methyl-1H-pyrazol-4-yl)-7-(morpholin-4-yl)-3H-imidazo[4,5-b]pyridin-2-yl][4-(morpholin-4-yl)piperidin-1-yl]methanone]
2 | 4 nM | 808 µg/mL (≈ 1630 µM) | 754 µg/mL (≈ 1520 µM) | 4 nM | 971 nM | 9910 nM | 3030 nM | 11 nM | Cc1nn(C)cc1-c1cc(N2CCOCC2)c2nc(C(=O)N3CCC(N4CCOCC4)CC3)[nH]c2n1 [compound 94, [5-(1,3-Dimethyl-1H-pyrazol-4-yl)-7-(morpholin-4-yl)-3H-imidazo[4,5-b]pyridin-2-yl][4-(morpholin-4-yl)piperidin-1-yl]methanone]
3 | 6 nM |  |  | 6 nM | > 10000 nM | > 10000 nM | > 10000 nM | 43 nM | Cn1cc(-c2nc3[nH]c(C(=O)N4CCC(N5CCOCC5)CC4)nc3c(N3CCOCC3)c2F)cn1 [compound 98, [6-Fluoro-5-(1-methyl-1H-pyrazol-4-yl)-7-(morpholin-4-yl)-3H-imidazo[4,5-b]pyridin-2-yl][4-(morpholin-4-yl)piperidin-1-yl]methanone]
4 |  | > 1510 µg/mL | 124 µg/mL (≈ 265 µM) |  |  |  |  |  | O=C(c1nc2c(N3CCOCC3)nc(-c3cn[nH]c3)nc2[nH]1)N1CCC(N2CCOCC2)CC1 [compound 42, [4-(Morpholin-4-yl)piperidin-1-yl][6-(morpholin-4-yl)-2-(1H-pyrazol-4-yl)-9H-purin-8-yl]methanone]
5 | 14 nM |  |  | 14 nM | 8820 nM | > 10000 nM | 2100 nM | 225 nM | Cc1nn(C)cc1-c1nc(N2CCOCC2)c2nc(C(=O)N3CCC(N4CCOCC4)CC3)[nH]c2n1 [compound 41, [2-(1,3-Dimethyl-1H-pyrazol-4-yl)-6-(morpholin-4-yl)-9H-purin-8-yl][4-(morpholin-4-yl)piperidin-1-yl]methanone]
6 | 13 nM |  |  | 13 nM | 4050 nM | > 10000 nM | 5660 nM | 192 nM | O=C(c1nc2c(N3CCOCC3)nc(-c3c[nH]nc3C(F)(F)F)nc2[nH]1)N1CCC(N2CCOCC2)CC1 [compound 19, [4-(Morpholin-4-yl)piperidin-1-yl]{6-(morpholin-4-yl)-2-[3-(trifluoromethyl)-1H-pyrazol-4-yl]-9H-purin-8-yl}methanone]

Further lines, the molecule ahead of its results:

Row | Compound | IC50 [1] | solubility at 30 min [2, 7] | solubility at 30 min [2, 8] | IC50 [1, 9] | IC50 [3] | IC50 [4] | IC50 [5] | IC50 [6]
7 | Cn1cc(-c2nc(N3CCOCC3)c3nc(C(=O)N4CCC(C(C)(C)O)CC4)[nH]c3n2)cn1 [compound 14, [4-(2-Hydroxypropan-2-yl)piperidin-1-yl][2-(1-methyl-1H-pyrazol-4-yl)-6-(morpholin-4-yl)-9H-purin-8-yl]methanone] | 16 nM |  |  | 16 nM | > 1000 nM | > 10000 nM | 584 nM | 810 nM
8 | CN(C)C1CCN(C(=O)c2nc3c(N4CCOCC4)c(F)c(-c4cnn(C)c4)nc3[nH]2)CC1 [compound 99, [4-(Dimethylamino)piperidin-1-yl][6-fluoro-5-(1-methyl-1H-pyrazol-4-yl)-7-(morpholin-4-yl)-3H-imidazo[4,5-b]pyridin-2-yl]methanone] | 29 nM | 816 µg/mL (≈ 1790 µM) | 321 µg/mL (≈ 703 µM) |  |  |  |  | 
9 | CN1CCCC1CCNC(=O)c1nc2c(N3CCOCC3)nc(-c3cnn(C)c3)nc2[nH]1 (stereo not drawn) [compound 64, 2-(1-Methyl-1H-pyrazol-4-yl)-N-{2-[1-methylpyrrolidin-2-yl]ethyl}-6-(morpholin-4-yl)-9H-purine-8-carboxamide] | 17 nM |  |  | 17 nM | 984 nM | > 10000 nM | 6130 nM | 112 nM
10 | Cc1nn(C)cc1-c1nc(N2CCOCC2)c2nc(C(=O)N3CCN(C(C)(C)C(N)=O)CC3)[nH]c2n1 [compound 8, 2-(4-{[2-(1,3-Dimethyl-1H-pyrazol-4-yl)-6-(morpholin-4-yl)-9H-purin-8-yl]carbonyl}piperazin-1-yl)-2-methylpropanamide] | 10 nM |  |  | 10 nM | 6480 nM | > 1000 nM | 6540 nM | 422 nM
11 | Cc1nn(C)cc1-c1nc2[nH]c(C(=O)N3CCC(N(C)C)CC3)nc2c(N2CCOCC2)c1F [compound 97, [4-(Dimethylamino)piperidin-1-yl][5-(1,3-dimethyl-1H-pyrazol-4-yl)-6-fluoro-7-(morpholin-4-yl)-3H-imidazo[4,5-b]pyridin-2-yl]methanone] | 3 nM | > 936 µg/mL | > 923 µg/mL | 3 nM | 1080 nM | > 10000 nM | 961 nM | 183 nM
12 | Cn1cc(-c2cc(N3CCOCC3)c3nc(C(=O)N4CCC(N5CCOCC5=O)CC4)[nH]c3n2)cn1 [compound 77, 4-(1-{[5-(1-Methyl-1H-pyrazol-4-yl)-7-(morpholin-4-yl)-3H-imidazo[4,5-b]pyridin-2-yl]carbonyl}piperidin-4-yl)morpholin-3-one] | 9 nM | 1430 µg/mL (≈ 2890 µM) | 251 µg/mL (≈ 508 µM) |  |  |  |  | 
13 | Cn1cc(-c2nc3[nH]c(C(=O)N4CCC5(CC4)COC5)nc3c(N3CCOCC3)c2F)cn1 [compound 79, [6-Fluoro-5-(1-methyl-1H-pyrazol-4-yl)-7-(morpholin-4-yl)-3H-imidazo[4,5-b]pyridin-2-yl](2-oxa-7-azaspiro[3.5]non-7-yl)methanone] | 20 nM |  |  | 20 nM | > 1000 nM | > 10000 nM | > 1000 nM | 13 nM
14 | Cn1cc(-c2nc(N3CCOCC3)c3nc(C(=O)NCCCN4CCOCC4)n(C)c3n2)cn1 [compound 67, 9-Methyl-2-(1-methyl-1H-pyrazol-4-yl)-6-(morpholin-4-yl)-N-[3-(morpholin-4-yl)propyl]-9H-purine-8-carboxamide] | 11 nM |  |  | 11 nM | > 1000 nM | > 10000 nM | > 1000 nM | 27 nM
15 | Cc1nn(C)cc1-c1nc2[nH]c(C(=O)N3CCC(O)CC3)nc2c(N2CCOCC2)c1F [compound 86, [5-(1,3-Dimethyl-1H-pyrazol-4-yl)-6-fluoro-7-(morpholin-4-yl)-3H-imidazo[4,5-b]pyridin-2-yl](4-hydroxypiperidin-1-yl)methanone] | 27 nM |  |  | 27 nM | > 1000 nM | > 10000 nM | 8460 nM | 222 nM
